Data: US20250076288A1, “STABILIZED PEPTIDES FOR BIOMARKER DETECTION” (Dana-Farber Cancer Institute, Inc., priority 2018, published 2025)
Bridges are numbered along the chain shown (N, C = ends). Where no end group is shown, it is not given here. [ ]: non-standard residue; d: D form. The star is where a group is joined. Biotin = O=C1N[C@H]2[C@H](CS[C@H]2CCCCC(=O)*)N1; S5 = C=CCCC[C@](C)(N)C(=O)O; Nle = CCCC[C@H](N)C(=O)O

Tests used:
actin filaments [1] = assay: Staple scan of TAMRA-tagged stapled Abp140 peptides: actin binding over time by fluorescence microscopy in C2C12 cells; assay type: cell-based; conditions: C2C12 mouse myoblast cells, TAMRA-tagged peptides (b)-(g) compared
Excerpt: As a proof of concept, hydrocarbon staples were introduced at different locations in a peptide with known binding attributes for a target protein in order to identify stapled peptides with enhanced stability, cell penetrance, and that retain or enhance target binding. As shown in FIG. 1 (row (a)), a peptide composed of 17 amino acids from the N-terminus of the S. cerevisiae Abp 140 protein that binds to actin filaments was chosen for modification. In the native protein, this peptide has an alpha-helical structure that is a recognition motif for actin. At least one all-hydrocarbon staple was introduced at various locations of the peptide to stabilize the alpha-helical recognition motif to produce stapled peptides markers for actin (see rows (b)-(g) in FIG. 1; the location of hydrocarbon staples in the peptide sequence is demarcated by an X, wherein X is(S)-2-(4′-pentenyl)alanine). […] After 3 hours of incubation, cells were washed with PBS to remove extra peptide reagent and fluorescence microscopy was then used to assess actin binding by the peptides, and to determine overall peptide stability. […] The stapled peptide that retained actin binding over the longest period of time, as determined by fluorescence in cells, was selected as having hydrocarbon staple(s) at the optimal sequence locations for improving peptide stability for biomarker detection.

actin [2] = assay: Visualization of actin in U2OS cells with TAMRA- and biotin-labeled stapled peptides; assay type: cell-based
actin filaments [3] = assay: Labeling of actin filaments in live C2C12 cells, confocal microscopy; assay type: cell-based, mouse; conditions: 10 μM, room temperature, 2 hours, then 50 μM chloroquine for 30 minutes
Description: To determine if stabilized peptides can be used to detect biomarkers in live cells, stapled peptide (g) (see FIG. 1, row (g)) was used to label actin filaments in mouse myoblast cells (C2C12 cell line, ATCC® CRL-1772™). Initially, cells were seeded at a density of 10,000 cells/well in 96 well plates in DMEM media and incubated overnight at 37° C. […] After washing the cells with phosphate-buffered saline (PBS), Hoechst DNA dye was then added to the cells, which were further incubated at room temperature for 30 minutes before being washed again to remove extra dye. Afterwards, confocal microscopy was used to determine the intracellular localization of the fluorescent-tagged stapled peptide.
This technology can be applied for, e.g., to FACS and other fluorescent high-throughput screening methods to for example detect overexpression of biomarkers in fixed and living cells.

actin [4] = assay: Actin visualization in fixed murine tissues; assay type: cell-based, mouse; conditions: fixed murine heart, lower extremity and tongue, FIG. 5
actin [5] = assay: Labeling of actin in live zebrafish, confocal microscopy; assay type: in vivo; conditions: 10 μM, room temperature, 2 hours, then 50 μM chloroquine for 30 minutes; skin; FIG. 9
Description: In a further application, a lead TAMRA-labeled stapled actin-binding peptide was incubated with live zebrafish (10 μM, room temperature, 2 hours), followed by treatment with 50 μM chloroquine for 30 minutes to achieve complete endosomal release and was immediately imaged by confocal microscopy (FIG. 9).

actin filaments [6] = assay: Labeling of actin filaments in fixed C2C12 cells, confocal microscopy; assay type: cell-based, mouse
Description: Stapled peptide (g) was also used to detect actin filaments in fixed C2C12 cells. Cells were seeded in 96 well plates at a density of 10,000 cells/well in DMEM media and incubated overnight at 37° C. The cells were fixed using 4% paraformaldehyde in PBS for 20 minutes and then permeabilized using 0.3% Triton-X100 in PBS for 10 minutes. This was followed by the addition of Hoechst DNA dye to the cells to stain nuclei, and FITC-phalloidin (Acti-stain™ 488 phalloidin, Cat. #PHDG1-A, Cytoskeleton, Inc.) to label F actin. After rinsing the cells with PBS, serial dilutions of each peptide were transferred to the cells, and the cells were incubated at 37° C. for 30 minutes. Confocal microscopy was then used to detect the cellular localization of the stapled peptide (g) fused to a fluorescent tag.

## peptide (f): hydrocarbon-stapled Abp140 N-terminal 17-mer, TAMRA-tagged; selected as most stable stapled peptide marker for actin ([Nle]GVADLIKKFE[S5]ISK[S5]EK(TAMRA); staple 12-16)
Actin filaments [1]
  period of time over which actin binding is retained, as determined by fluorescence in cells: exhibited actin binding for the longest period of time

## (h): stapled actin-binding peptide with alanine substitution and Lysine(Biotin) ([Nle]GVADLIKKFE[S5]IAK[S5]EK(Biotin); staple 12-16; not fully specified)
Actin [2]; biotin label, fixed cells, FIG. 4B
  actin detection in U2OS cells, indirect detection with fluorescently-labeled streptavidin: robust actin detection was observed

## peptide (g): peptide (f) with a serine to alanine substitution (S14A); Lysine(TAMRA)-tagged stapled actin-binding peptide ([Nle]GVADLIKKFE[S5]IAK[S5]EK(TAMRA); staple 12-16)
Actin filaments [3]
  cell entry and labeling of actin filaments in live cells: entered live cells and selectively bound to and labeled actin filaments
Actin [4]
  actin visualization in mouse tissues: robust actin visualization in heart, lower extremity, and tongue specimens
Actin [2]; TAMRA label, FIG. 4A
  actin detection in U2OS cells, direct fluorescence detection: robust actin detection was observed
Actin [5]
  labeling of actin in live zebrafish: can label actin in the skin of live zebrafish
Actin filaments [6]; C2C12 cells fixed with 4% paraformaldehyde, permeabilized with 0.3% Triton-X100, confocal microscopy
  labeling of actin filaments in fixed cells: selectively bound to and labeled actin filaments
Actin filaments [6]; fixed C2C12 cells
  co-localization with the FITC-phalloidin-labeled actin filament network: co-localized with the actin filament network
